The values that follow come from patent publication US12178840B2, “Method and compositions comprising a CT20 peptide” (UNIVERSITY OF CENTRAL FLORIDA RESEARCH FOUNDATION, INC., priority 2014, dated 2024).

Residues, ends and D or L forms follow the SMILES beside them.

Assay type in all cases: cell-based, human
In one data set the test system is MDA-MB-231 cells. As to the kind of experiment: Migration assay (Oris exclusion zone). The conditions noted are these: 24 hours treatment, 10 hours migration. The method, then: Migration assay: The Oris cell migration assembly kit (Platypus Technologies) was used. Cells were stained with CellTrace Violet (Life Technologies) according to manufacturer's protocol. Stoppers were placed in wells of a 96-well plate before cells were seeded at a density of 30,000 cells per well. For experiments involving CT20p treatment, treatments with CT20p were began 18 hours following seeding and allowed to continue for 24 hours. Treatments were done in quadruplicate. At the end of the treatment period, stoppers were removed to create an exclusion zone that the cells would migrate into. MDA-MB-231 cells were allowed to migrate for 10 hours. MCF-10A and MCF-10A EMT cells were allowed to migrate for 20 hours. Following the migration period, fluorescent images were obtained using a Plate Runner HD (Trophos). […] Images were analyzed by ImageJ software (NIH) by using the wand tool to automatically define and measure the migration zone. % closure was calculated as [(pre migration area−migration area)/pre migration area]×100.
Observations on the effects of CT20p on breast cancer cells include loss of actin distribution throughout the cell, especially in the filapodia (FIG. 3C). […] Immediately following removal of the stoppers, the pre-migration area can be determined. […] After quantification of the areas as described in Materials & Methods, % closure was calculated for each condition (FIG. 11B). […]

Another data set has as its system tubulin in MCF-10A cells. The experiment in a line: Fixed cell immunofluorescence of tubulin. The following applies: 24 hours of CT20p treatment. The protocol:
Fixed cell immunofluorescence: Cells were seeded on glass coverslips (Fisher) in a 6-well plate at a density of 150,000 cells/well. Cells at 60% confluency were treated with CT20p or left untreated for 24 hours. After CT20p treatment, cells were stained with Mitotracker Red CMXRos (Life Technologies) at a concentration of 200 nM for 30 minutes, before being fixed in ice cold methanol for 10 minutes at −20° C. Cells were then permeabilized in 0.1% Triton X-100 for 10 minutes at 37° C. Samples were blocked in 5% normal goat serum (Santa Cruz) for 30 minutes at 37° C., then incubated with primary antibody α-tubulin (DM1A) (Santa Cruz) for 3 hours at 37° C. Secondary antibody was goat α-mouse IgG-FITC (Santa Cruz) and was applied for 1 hour at room temperature. Coverslips were mounted in UltraCruz mounting media (Santa Cruz), which contains DAPI for nuclear staining. Images were obtained with a Zeiss LSM 710 microscope, using a Zeiss 63× Pan-Apocromat oil immersion lens and Zeiss Zen software. To determine average tubulin levels per cell, the amount of FITC fluorescence intensity per region of interest was divided by the number of cells in the field. At least four images containing between 5 and 12 cells were quantified for each condition. Image analysis was done using Volocity software (Perkin Elmer). […]

The test system of data set [1] is cells isolated from primary breast tumors. The experiment in a line: Lethality in cells isolated from primary breast tumors. The following applies: CT20 peptide in HBPE-NPs. The source says: 40× magnification. CCTβ was detected in invasive breast cancer.
The lethality of CT20 was also examined in cells isolated from primary breast tumors and paired normal tissue. […] To this end, the levels of CCTβ were examined in a pilot tissue array of breast cancer tissue cores by immunohistochemistry (IHC) and detected CCTβ in invasive breast cancer (FIG. 14B).

Data set [2] relates to TNBC cell lines and MCF-10A. As to the kind of experiment: Metabolic stress tests (Seahorse, oxygen consumption and extracellular acidification). The conditions noted are these: 75 ug/mL for 24 hours before the assay. The method, then:
Measurement of oxygen consumption and extracellular acidification: 24-well culture plates for use with the Seahorse XFe24 analyzer were coated with Cell-Tak (BD Bioscience) at 3.5 ug/cm2. Cells were then seeded at 60,000 cells/well and allowed to adhere overnight. Measurements of oxygen consumption rate and extracellular acidification rate were obtained using a Seahorse XFe 24 analyzer (Seahorse Bioscience). To obtain mitochondrial metabolic profiles, injections of oligomycin (1 uM), FCCP (0.3 uM), rotenone (0.1 uM), and antimycin A (2 uM) were performed. The mitochondrial coupling efficiency was calculated as: [1−(minimum oligomycin response/final basal measurement)]×100. To obtain glycolytic metabolic profiles, injections of glucose (10 mM), oligomycin (1 uM), and 2-deoxy-D-glucose (100 mM) were performed. Glycolytic reserve capacity was calculated as: maximum oligomycin response−maximum glucose response. […] Metabolic capacity was defined as the maximum recorded measurement in both mitochondrial and glycolytic contexts. CT20p-treated results were calculated as a percentage of untreated results.
The effect of CT20p on cellular metabolism was also examined by pre-treating the cells with CT20p prior to running metabolic stress tests. Glycolytic capacity (FIG. 6C) and respiration capacity (FIG. 6F) were calculated for treated cells with respect to untreated cells.

As to `CC[C@H](C)[C@H](NC(=O)[C@@H](NC(=O)[C@H](CC(C)C)NC(=O)[C@H](CO)NC(=O)[C@H](C)NC(=O)[C@@H](NC(=O)[C@H](CC(C)C)NC(=O)[C@@H](NC(=O)CNC(=O)[C@H](C)NC(=O)[C@@H](NC(=O)[C@H](Cc1ccccc1)NC(=O)[C@@H](NC(=O)[C@@H](NC(=O)[C@@H](NC(C)=O)C(C)C)[C@@H](C)O)[C@@H](C)CC)C(C)C)C(C)C)[C@@H](C)O)[C@@H](C)O)C(=O)N[C@@H](Cc1c[nH]c2ccccc12)C(=O)N[C@@H](CCCCN)C(=O)N[C@@H](CCCCN)C(=O)N[C@@H](CCSC)C(=O)NCC(N)=O` [CT20] (Ac-VTIFVAGVLTASLTIWKKMG-NH2), the “Effect on migration (% closure of exclusion zone)” value with MDA-MB-231 cells (75 μg/mL) was “significantly impaired movement”; with MDA-MB-231 cells (150 μg/mL), “nearly eliminated”. In the data set with tubulin in MCF-10A cells, the “Amount of tubulin per cell” value is listed as “no significant loss”. In data set [1], the Lethality result was “killed the tumor cells”. Besides, the “Metabolic responses (glycolytic capacity, respiration capacity) that could explain the cytotoxicity pattern” value in data set [2] was “None of the cell lines displayed metabolic responses”.
